Tests used:
[1] = test system: endothelial and smooth muscle cells; experiment: Summary of Examples 2-3: post-thaw survival of endothelial and smooth muscle cells (Calcein-AM assay); type: cell-based, human
Procedure: For pre-freeze (PF), post-warming (PW) and pre/post (P/P) conditioning studies, molecular modulation agents targeting inhibition of apoptosis (Caspase inhibitor IV, 8, 9 and a combination of Caspases 8 and 9), reduction of free-radical damage (resveratrol and NAC), and activation of the unfolded protein response (salubrinal) were employed as supplements in the media 1 hour prior to freezing (pre-freeze condition) or for 1 day following thawing and CPA removal from frozen samples (post-warming condition).
(§1) The device was used to thaw the samples, which were frozen in situ in monolayers in standard 96-well tissue culture plates. Samples were thawed from less than −170° C. to about 4° C. in the 96-well plate format in about 5 mins in a dry clean (“sterile”) environment.
The P/P regime was followed by PW using Caspase 8 inhibition or NAC inhibition.

[2] = test system: hamster beta islet cells; experiment: Hamster beta islet cell survival following cryopreservation (AlamarBlue assay); type: cell-based; conditions: PW conditioning 24 hours vs non-modulated samples; 10 mM NAC recovery media
Procedure: The studies described in example 8 focus on the collection of cell survival data and the impact of post-thaw conditioning on hamster beta islet cells. Specific activities included standard cryopreservation protocol and collection of data (survival and cell death) from samples frozen using 3 unique cryopreservation solutions (media with 0, 5% DMSO and 5% DMSO+NAC) and oxidative stress PW modulation (NAC). Survival was determined at 24 hours post-thaw to allow for the manifestation of any delayed onset cell death pathways to be executed. Further, cell recovery was included to evaluate the long term potency and repopulation potential of the various samples.
Cell samples were processed according to standard controlled rate suspension freeze protocols and analyzed following 24 hours to 3 days post thaw for survival and recovery. […] To this end, samples were probed with AlamarBlue, incubated for 60 mins in the dark and then assessed using a Tecan micro plate reader. […]
FIG. 33 illustrates the results of an assessment of beta islet cell survival following cryopreservation in media based solutions with various CPA concentrations. […] Following thawing, samples were placed into culture and assessed for viability at 1 day (24 hours) post-thaw using the AlamarBlue assay. […]

[3] = test system: human smooth muscle cells; experiment: Human smooth muscle cell monolayer survival and repopulation following cryopreservation (Calcein-AM assay); type: cell-based
Procedure: as §1
The study described in example 3.1 focuses on the collection of cell survival data and the impact of post-thaw conditioning on human smooth muscle cells (SMCs). Specific activities included application of the high throughput monolayer sample cryopreservation protocol and collection of data (survival and cell death) from samples frozen using 6 unique cryopreservation solutions (U5, U10, U20, U5G10, U10G10, DP6) and 6 unique modulators (resveratrol, salubrinal, caspase inhibitors (IV, 8, 9) and NAC). Survival was determined at 24 hours post-thaw to allow for the manifestation of any delayed onset cell death pathways to be executed. Further, cell recovery was included to evaluate the long term potency and repopulation potential of the various samples.
A series of experiments was conducted to evaluate the performance of several solutions (U5, U10, U20, U5G10, U10G10 and DP6) as well as the impact of pre-freeze (PF) and post-warming (PW) conditioning with the apoptotic inhibitors Caspase 8, Caspase 9 and Caspase IV inhibitors. Cell samples were processed using the monolayer CP protocol and analyzed following 24 hours to 7 days post thaw for survival and recovery. These experiments were conducted to evaluate the impact of molecular modulators (inhibitors) during pre-freeze or post-thaw recovery on cell survival when added to the media 1 hour prior to or 24 hour following cryopreservation. […] To this end, samples were probed with Calcein-AM, incubated for 30 mins in the dark and then imaged using a Zeiss Axiovert 200 fluorescence microscope and Axiovision software. Images were taken at 24 hours to 7 days post-thaw to allow for assessment of solution and post-thaw conditioning agent performance.
As in previous experiments, the 24 hour time point was used for initial survival assessment, as this time point allows for the manifestation of molecular based cell stress-induced death. This provides a more accurate measure of survival than 0 or 1 hour post-thaw assessment, as is typically used. The 3 day time point was selected to assess re-population potential of any surviving cells as an indicator of long term potency.
For smooth muscle cell pre-freeze (PF) conditioning studies, 1 hour prior to CP addition, culture media was decanted and 100 μL of fresh media supplemented with caspase 8, 9, or IV was added to each respective well. Samples were then incubated at 37° C. for 1 hour, followed by media removal and addition of 100 μL of CP solution to samples followed by cryopreservation as described above. Following preservation, samples were thawed, diluted, and placed into culture. Following 24 hours recovery, cell viability was assessed.
For smooth muscle cell post-warming (PW) conditioning studies, following thawing and cryopreservation, CP solution was removed or diluted with culture media supplemented with caspase 8, 9, or IV. FIG. 18 illustrates the impact of apoptotic inhibition post-freeze conditioning on human smooth muscle cell survival 1 day following cryopreservation with and without reduced CPA.
For P/P conditioning studies, 1 hour prior to CP addition, culture media was decanted and 100 μL of fresh media supplement with caspase 8, 9, or IV was added to each respective well.

CC(=O)N[C@@H](CS)C(=O)O [NAC, n-acetyl cysteine]
day 1 post-thaw cell survival and cell recovery ([1]; PF, PW and P/P conditioning, Unisol based solutions): Improvements in survival
increase in cell survival over non-treated samples ([1]; PW conditioning): ~50%
post-thaw survival [2]: improvement in post-thaw survival
repopulation / recovery at 3 days post-thaw ([3]; P/P conditioning with oxidative stress modulators): day 3 recovery reached a monolayer similar to non-treated controls
day 1 cell survival ([3]; P/P conditioning, vs non-conditioned samples): slight to no improvement in cell survival
post-thaw cell survival or recovery (overall) ([3]; PW conditioning in combination with the other solutions): Broader solution benefit
cell recovery / repopulation, day 3 ([3]; PW conditioning with oxidative stress modulators): improved cell recovery
day 1 cell survival ([3]; PW conditioning, vs non-treated matched samples): improvement in cell survival
